Structures can show the parent of a compound that is named as a salt.
Assays:
[1] = system: epidermal keratinocytes of human neonates; assay: Oxytocin release by differentiated keratinocytes after ATP gamma s addition (ELISA of culture medium); assay type: cell-based
Description: The keratinocytes used herein were epidermal keratinocytes of human neonates up to a passage number of 4 (Kurabo Industries Ltd.). The culture medium was Defined Keratinocyte-SFM (Invitrogen Japan K.K.). The keratinocytes were grown to confluence in 10-cm dishes at 37° C. for several days with the culture medium replaced on alternate days, and then the calcium chloride concentration in the culture medium was increased to 1.8 mM thereby inducing differentiation. After a lapse of 45 hours, adenosine-5′-(3-thio)triphosphoric acid tetralithium salt (Sigma Co., hereinafter referred to as “ATP gamma s-Li”) was added to each dish so as to make the final concentrations of 0, 10, 30, 100, and 300 μM, and the incubation of culture was continued at 37° C. The culture medium was collected 10 minutes after the addition of ATP gamma s, and the amount of oxytocin was measured with the ELISA method.
Oxytocin in the collected culture medium was purified and concentrated using a reversed phase column (C18 Sep-pak Light, Waters Co.), and eluted with an aqueous solution containing 60% acetonitrile and 0.1% trifluoroacetic acid. More specifically, the column eluate fraction containing oxytocin was freeze-dried, and dissolved again in a small amount of buffer solution (included in the EIA kit), and the oxytocin in the culture medium was concentrated at least 20 fold. Thereafter, the oxytocin concentration in the concentrated oxytocin solution was measured by the competitive ELISA method using Oxytocin EIA Kit (Assay Designs, Inc). The measurement procedure described in the instruction manual attached to the kit was followed. […] The absorbance of the color reaction by alkaline phosphatase was measured, and a semilogarithmic standard curve was generated by plotting the absorbance change due to the competitive inhibition against the known amount of oxytocin. The standard curve was used to determine the amount of oxytocin corresponding to the absorbance of the sample. […]

keratinocytes = settings: added to keratinocytes; J. Clin. Invest. (1992) 90, 42-51; Biochem. J. (2004) 380, 329-338; cited from earlier work

Nc1ncnc2c1ncn2[C@@H]1O[C@H](COP(=O)(O)OP(=O)(O)OP(O)(O)=S)[C@@H](O)[C@H]1O [ATP gamma s, adenosine-5′-(3-thio)triphosphoric acid tetralithium salt]
change of oxytocin concentration in the culture media with ATP gamma s concentration ([1]; 0, 10, 30, 100, 300 μM ATP gamma s, 10 minutes, no EGTA): increased with increases of ATP gamma s
oxytocin concentration in the culture medium ([1]; 300 μM ATP gamma s, medium collected 10 minutes after addition, 37° C., ELISA): exceeded 7 pg/mL
Ca2+ concentration in the keratinocytes (keratinocytes): increase the Ca^2+ concentration in the keratinocytes in a concentration-dependent manner

O=C(O)CN(CCOCCOCCN(CC(=O)O)CC(=O)O)CC(=O)O [EGTA, ethylene glycol bis(2-aminoethyl ether) tetraacetic acid]
effect of EGTA on the increase of oxytocin concentration with increases of ATP gamma s ([1]; 2 mM EGTA added 5 minutes before ATP gamma s): inhibited

Nc1ncnc2c1ncn2[C@@H]1O[C@H](COP(=O)(O)OP(=O)(O)OP(=O)(O)O)[C@@H](O)[C@H]1O [ATP]
Ca2+ concentration in the keratinocytes (keratinocytes): increase the Ca^2+ concentration in the keratinocytes in a concentration-dependent manner
